Source: publication PMC6681697, “One-Step ^18F-Labeling and Preclinical Evaluation of Prostate-Specific Membrane Antigen Trifluoroborate Probes for Cancer Imaging” (Journal of Nuclear Medicine, 2019)

Key:
[1] = Distribution coefficient (LogD7.4), shake flask method; assay type: physicochemical; conditions: n-octanol / phosphate buffer 0.1 M pH 7.4; n = 3
Procedure: LogD7.4 values were measured using the shake flask method. Briefly, an aliquot of ^18F-labeled tracer was added to a vial containing 2.5 mL of n-octanol and 2.5 mL of phosphate buffer (0.1 M, pH 7.4). The mixture was vortexed for 2 min and then centrifuged at 3,000g for 10 min. A sample of the n-octanol (0.1 mL) and buffer (0.1 mL) layers was counted using a γ-counter. Values of LogD7.4 were calculated using the following equation: LogD7.4 = log10 [(counts in n-octanol phase)/(counts in buffer phase)].

LNCaP xenografts = test: Ex vivo biodistribution and blocking studies in mice bearing LNCaP xenografts; conditions: for tumor uptake: LNCaP tumor
Procedure: Imaging and biodistribution experiments were performed using NODSCID IL2RγKO male mice. All experiments were conducted according to the guidelines established by the Canadian Council on Animal Care and approved by the Animal Ethics Committee of the University of British Columbia. Mice were anesthetized by inhalation with 2% isoflurane in oxygen and implanted subcutaneously with 1 × 10^7 LNCaP cells behind the left shoulder. The mice were imaged or used in biodistribution studies once the tumor reached 5–8 mm in diameter (5–6 wk).
For biodistribution and blocking studies, the mice were injected with 1–3 MBq of radiotracer. At 60 min, the mice were anesthetized with 2% isoflurane inhalation and euthanized by CO2 inhalation. Blood was withdrawn by cardiac puncture, and the organs and tissues of interest were collected, weighed, and counted using an automatic γ-counter (PerkinElmer). Uptake values were expressed as the percentage of the injected dose per gram of tissue (%ID/g).
A standard 1-way ANOVA was performed to determine whether statistically significant differences in tumor uptake occurred between radiotracers. Each radiotracer was compared with ^18F-DCFPyL using the Dunnett test (a many-to-one t test comparison). This analysis was also performed for kidney and blood activity and for tumor-to-blood and tumor-to-muscle ratios. Reported P values were adjusted for multiple comparisons. The analysis was performed using Prism 8 (GraphPad). […]
Statistical analyses were performed using GradPad prism 7. Multiple t tests were performed to compare biodistribution in unblocked and blocked mice, multiple comparisons were corrected using the Holm-Sidak method. The difference was considered statistically significant when p value was < 0.05.
Supplemental Table 1 – Complete biodistribution study for compounds [18F]1–3 […]
Tissue 1h 1h blocked 1h 1h blocked 1h 1h blocked
(%ID/g) n = 8 n = 4 n = 6 n = 4 n = 8 n = 5 […]
(1 picture or pasted object on this page, not shown here)

PSMA = target: T1, PSMA (Homo sapiens, UniProt Q04609); test: In vitro competition binding assay on LNCaP cells with ^18F-DCFPyL as radioligand
T1 construct: because it expresses PSMA endogenously and is commonly used to evaluate PSMA-targeting radiotracers; endogenous in cells; host or cells: LNCaP cells
Procedure: LNCaP cells were plated onto a 24-well poly-D-lysine coated plate for 48 h (400,000/well). […] Nonspecific binding was determined in the presence of 10 μM unlabeled DCFPyL. The assay mixtures were incubated for 1 h at 37°C with gentle agitation followed by 2 washes with cold HEPES buffered saline. A trypsin solution (0.25%, 400 μL) was then added to each well to harvest the cells. Radioactivity was measured by γ-counting, and Ki values were calculated using the “1 site—fit Ki” built-in model in Prism 7 (GraphPad).

[2] = 1 h after injection, 1-way ANOVA, Dunnett test
[3] = 1 h blocked (coinjection of DCFPyL 0.5 mg)

T1 sequence (Q04609 whole entry): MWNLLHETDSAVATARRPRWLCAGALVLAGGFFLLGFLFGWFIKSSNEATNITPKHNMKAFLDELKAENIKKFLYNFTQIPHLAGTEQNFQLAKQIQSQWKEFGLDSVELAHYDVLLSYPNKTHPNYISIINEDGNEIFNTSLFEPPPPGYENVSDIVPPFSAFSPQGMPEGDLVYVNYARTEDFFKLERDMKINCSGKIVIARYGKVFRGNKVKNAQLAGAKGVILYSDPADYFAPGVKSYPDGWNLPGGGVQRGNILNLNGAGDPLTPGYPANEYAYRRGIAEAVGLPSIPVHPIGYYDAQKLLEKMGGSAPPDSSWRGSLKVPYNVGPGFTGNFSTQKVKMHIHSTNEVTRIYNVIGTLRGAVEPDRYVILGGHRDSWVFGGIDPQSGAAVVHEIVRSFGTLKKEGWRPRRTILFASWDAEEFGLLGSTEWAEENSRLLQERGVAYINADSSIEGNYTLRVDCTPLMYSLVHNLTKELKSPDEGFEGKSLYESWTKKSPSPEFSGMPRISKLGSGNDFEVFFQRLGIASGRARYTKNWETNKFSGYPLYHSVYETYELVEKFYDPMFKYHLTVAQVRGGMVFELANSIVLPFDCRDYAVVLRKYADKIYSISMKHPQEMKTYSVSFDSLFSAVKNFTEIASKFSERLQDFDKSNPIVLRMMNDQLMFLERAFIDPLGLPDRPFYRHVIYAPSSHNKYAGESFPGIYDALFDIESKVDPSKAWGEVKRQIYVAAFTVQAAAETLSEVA

O=C(O)CC[C@H](NC(=O)N[C@@H](CCCCNC(=O)[C@H](Cc1ccc2ccccc2c1)NC(=O)[C@H]1CC[C@H](CNC(=O)Cn2cc(C[n+]3ccc([B-](F)(F)F)cc3)nn2)CC1)C(=O)O)C(=O)O [^18F-6]
LogD7.4 [1]: most lipophilic compound of the series
logD at 2 min [1]: -2.28 ± 0.01
intestinal activity compared with ^18F-DCFPyL (LNCaP xenografts; 1 h after injection): significantly higher intestinal activity than ^18F-DCFPyL
T/B (tumor-to-blood ratio) (LNCaP xenografts; 1 h after injection, unblocked): 19.80 ± 7.23
T/K (tumor-to-kidney ratio) (LNCaP xenografts; 1 h after injection, unblocked): 0.14 ± 0.02
T/M (tumor-to-muscle ratio) (LNCaP xenografts; 1 h after injection, unblocked): 72.20 ± 13.46
adrenal uptake (LNCaP xenografts; 1 h after injection, unblocked): 2.14 ± 0.61 %ID/g
blood uptake (LNCaP xenografts; 1 h after injection, unblocked): 0.68 ± 0.26 %ID/g
bone uptake (LNCaP xenografts; 1 h after injection, unblocked): 0.56 ± 0.14 %ID/g
brain uptake (LNCaP xenografts; 1 h after injection, unblocked): 0.03 ± 0.01 %ID/g
fat uptake (LNCaP xenografts; 1 h after injection, unblocked): 0.38 ± 0.14 %ID/g
heart uptake (LNCaP xenografts; 1 h after injection, unblocked): 0.22 ± 0.03 %ID/g
intestine uptake (LNCaP xenografts; 1 h after injection, unblocked): 23.05 ± 4.39 %ID/g
kidney uptake (LNCaP xenografts; 1 h after injection, unblocked): 83.22 ± 6.07 %ID/g
liver uptake (LNCaP xenografts; 1 h after injection, unblocked): 0.98 ± 0.22 %ID/g
lung uptake (LNCaP xenografts; 1 h after injection, unblocked): 1.05 ± 0.14 %ID/g
muscle uptake (LNCaP xenografts; 1 h after injection, unblocked): 0.17 ± 0.02 %ID/g
pancreas uptake (LNCaP xenografts; 1 h after injection, unblocked): 0.26 ± 0.06 %ID/g
spleen uptake (LNCaP xenografts; 1 h after injection, unblocked): 1.77 ± 0.70 %ID/g
stomach uptake (LNCaP xenografts; 1 h after injection, unblocked): 1.17 ± 1.35 %ID/g
testes uptake (LNCaP xenografts; 1 h after injection, unblocked): 0.33 ± 0.05 %ID/g
tumor uptake compared with ^18F-DCFPyL (LNCaP xenografts; [2]): No statistically significant differences
T/B (tumor-to-blood ratio) (LNCaP xenografts; [3]): 0.72 ± 0.43
T/K (tumor-to-kidney ratio) (LNCaP xenografts; [3]): 0.29 ± 0.07
T/M (tumor-to-muscle ratio) (LNCaP xenografts; [3]): 3.78 ± 0.17
adrenal uptake (LNCaP xenografts; [3]): 0.20 ± 0.04 %ID/g
blood uptake (LNCaP xenografts; [3]): 1.64 ± 2.58 %ID/g
bone uptake (LNCaP xenografts; [3]): 0.57 ± 0.37 %ID/g
brain uptake (LNCaP xenografts; [3]): 0.03 ± 0.03 %ID/g
fat uptake (LNCaP xenografts; [3]): 0.06 ± 0.02 %ID/g
heart uptake (LNCaP xenografts; [3]): 0.17 ± 0.07 %ID/g
intestine uptake (LNCaP xenografts; [3]): 24.50 ± 4.86 %ID/g
kidney uptake (LNCaP xenografts; [3]): 1.30 ± 0.25 %ID/g
liver uptake (LNCaP xenografts; [3]): 0.87 ± 0.17 %ID/g
lung uptake (LNCaP xenografts; [3]): 0.43 ± 0.23 %ID/g
muscle uptake (LNCaP xenografts; [3]): 0.10 ± 0.02 %ID/g
pancreas uptake (LNCaP xenografts; [3]): 0.16 ± 0.14 %ID/g
spleen uptake (LNCaP xenografts; [3]): 0.18 ± 0.10 %ID/g
stomach uptake (LNCaP xenografts; [3]): 0.88 ± 0.41 %ID/g
testes uptake (LNCaP xenografts; [3]): 0.14 ± 0.04 %ID/g
tumor uptake (LNCaP xenografts; 1 h after injection, unblocked, listed as 6): 11.9 ± 2.3 %ID/g
tumor uptake (LNCaP xenografts; 1 h after injection, unblocked, listed as [18F]6): 11.94 ± 2.29 %ID/g
tumor uptake (LNCaP xenografts; [3]): 0.37 ± 0.10 %ID/g
Ki (PSMA): 1.9 ± 0.68 nM

C[N+](C)(Cc1cn(Cc2ccc(C(=O)NCCCC[C@H](NC(=O)N[C@@H](CCC(=O)O)C(=O)O)C(=O)O)cn2)nn1)C[B-](F)(F)F [^18F-3]
logD at 2 min [1]: -4.01 ± 0.14
T/B (tumor-to-blood ratio) (LNCaP xenografts; 1 h after injection, unblocked): 9.68 ± 4.53
T/K (tumor-to-kidney ratio) (LNCaP xenografts; 1 h after injection, unblocked): 0.11 ± 0.08
T/M (tumor-to-muscle ratio) (LNCaP xenografts; 1 h after injection, unblocked): 29.00 ± 12.40
adrenal uptake (LNCaP xenografts; 1 h after injection, unblocked): 1.35 ± 0.52 %ID/g
blood uptake (LNCaP xenografts; 1 h after injection, unblocked): 0.50 ± 0.16 %ID/g
bone uptake (LNCaP xenografts; 1 h after injection, unblocked): 0.20 ± 0.06 %ID/g
brain uptake (LNCaP xenografts; 1 h after injection, unblocked): 0.03 ± 0.01 %ID/g
fat uptake (LNCaP xenografts; 1 h after injection, unblocked): 0.35 ± 0.15 %ID/g
heart uptake (LNCaP xenografts; 1 h after injection, unblocked): 0.19 ± 0.07 %ID/g
intestine uptake (LNCaP xenografts; 1 h after injection, unblocked): 0.28 ± 0.07 %ID/g
kidney uptake (LNCaP xenografts; 1 h after injection, unblocked): 51.80 ± 24.10 %ID/g
liver uptake (LNCaP xenografts; 1 h after injection, unblocked): 1.17 ± 0.28 %ID/g
lung uptake (LNCaP xenografts; 1 h after injection, unblocked): 0.66 ± 0.19 %ID/g
muscle uptake (LNCaP xenografts; 1 h after injection, unblocked): 0.17 ± 0.07 %ID/g
pancreas uptake (LNCaP xenografts; 1 h after injection, unblocked): 0.27 ± 0.13 %ID/g
spleen uptake (LNCaP xenografts; 1 h after injection, unblocked): 0.84 ± 0.52 %ID/g
stomach uptake (LNCaP xenografts; 1 h after injection, unblocked): 0.08 ± 0.04 %ID/g
testes uptake (LNCaP xenografts; 1 h after injection, unblocked): 0.30 ± 0.09 %ID/g
kidney accumulation compared with ^18F-DCFPyL (LNCaP xenografts; [2]): lower kidney accumulation
tumor uptake compared with ^18F-DCFPyL (LNCaP xenografts; [2]): lower tumor uptake than ^18F-DCFPyL
T/B (tumor-to-blood ratio) (LNCaP xenografts; [3]): 1.17 ± 0.70
T/K (tumor-to-kidney ratio) (LNCaP xenografts; [3]): 0.16 ± 0.05
T/M (tumor-to-muscle ratio) (LNCaP xenografts; [3]): 3.54 ± 1.43
adrenal uptake (LNCaP xenografts; [3]): 0.24 ± 0.07 %ID/g
blood uptake (LNCaP xenografts; [3]): 0.30 ± 0.10 %ID/g
bone uptake (LNCaP xenografts; [3]): 0.16 ± 0.06 %ID/g
brain uptake (LNCaP xenografts; [3]): 0.02 ± 0.00 %ID/g
fat uptake (LNCaP xenografts; [3]): 0.16 ± 0.10 %ID/g
heart uptake (LNCaP xenografts; [3]): 0.12 ± 0.06 %ID/g
intestine uptake (LNCaP xenografts; [3]): 0.23 ± 0.06 %ID/g
kidney uptake (LNCaP xenografts; [3]): 2.12 ± 0.73 %ID/g
liver uptake (LNCaP xenografts; [3]): 1.25 ± 0.17 %ID/g
lung uptake (LNCaP xenografts; [3]): 0.30 ± 0.11 %ID/g
muscle uptake (LNCaP xenografts; [3]): 0.09 ± 0.03 %ID/g
pancreas uptake (LNCaP xenografts; [3]): 0.08 ± 0.03 %ID/g
spleen uptake (LNCaP xenografts; [3]): 0.09 ± 0.05 %ID/g
stomach uptake (LNCaP xenografts; [3]): 0.06 ± 0.02 %ID/g
testes uptake (LNCaP xenografts; [3]): 0.10 ± 0.03 %ID/g
tumor uptake (LNCaP xenografts; 1 h after injection, unblocked, listed as 3): 4.4 ± 0.95 %ID/g
tumor uptake (LNCaP xenografts; 1 h after injection, unblocked, listed as [18F]3): 4.36 ± 0.95 %ID/g
tumor uptake (LNCaP xenografts; [3]): 0.35 ± 0.21 %ID/g
Ki (PSMA): 25.9 ± 5.7 nM
